Data: ChEMBL document CHEMBL4680224, “Discovery of pyridine tetrahydroisoquinoline thiohydantoin derivatives with low blood-brain barrier penetration as the androgen receptor antagonists” (Eur J Med Chem, 2020)
Active and inactive are the calls of the source. The rule behind the calls is not given here.

Columns and labels:
LNCaP [1] = test: Antiproliferative activity against human LNCaP cells assessed as reduction in cel viability after 72 hrs by MTT assay; format: functional, cell-based
DU-145 = test: Antiproliferative activity against human DU-145 cells assessed as reduction in cel viability after 72 hrs by MTT assay; format: functional, cell-based; details: DU-145, 72 h
Androgen receptor = molecular target: T1, Androgen receptor (Homo sapiens, UniProt P10275); test: Antagonist activity at Androgen receptor (unknown origin) expressed in COS7 cells by dual luciferase reporter gene assay relative to control; format: cell-based
T1 sequence (P10275 whole entry): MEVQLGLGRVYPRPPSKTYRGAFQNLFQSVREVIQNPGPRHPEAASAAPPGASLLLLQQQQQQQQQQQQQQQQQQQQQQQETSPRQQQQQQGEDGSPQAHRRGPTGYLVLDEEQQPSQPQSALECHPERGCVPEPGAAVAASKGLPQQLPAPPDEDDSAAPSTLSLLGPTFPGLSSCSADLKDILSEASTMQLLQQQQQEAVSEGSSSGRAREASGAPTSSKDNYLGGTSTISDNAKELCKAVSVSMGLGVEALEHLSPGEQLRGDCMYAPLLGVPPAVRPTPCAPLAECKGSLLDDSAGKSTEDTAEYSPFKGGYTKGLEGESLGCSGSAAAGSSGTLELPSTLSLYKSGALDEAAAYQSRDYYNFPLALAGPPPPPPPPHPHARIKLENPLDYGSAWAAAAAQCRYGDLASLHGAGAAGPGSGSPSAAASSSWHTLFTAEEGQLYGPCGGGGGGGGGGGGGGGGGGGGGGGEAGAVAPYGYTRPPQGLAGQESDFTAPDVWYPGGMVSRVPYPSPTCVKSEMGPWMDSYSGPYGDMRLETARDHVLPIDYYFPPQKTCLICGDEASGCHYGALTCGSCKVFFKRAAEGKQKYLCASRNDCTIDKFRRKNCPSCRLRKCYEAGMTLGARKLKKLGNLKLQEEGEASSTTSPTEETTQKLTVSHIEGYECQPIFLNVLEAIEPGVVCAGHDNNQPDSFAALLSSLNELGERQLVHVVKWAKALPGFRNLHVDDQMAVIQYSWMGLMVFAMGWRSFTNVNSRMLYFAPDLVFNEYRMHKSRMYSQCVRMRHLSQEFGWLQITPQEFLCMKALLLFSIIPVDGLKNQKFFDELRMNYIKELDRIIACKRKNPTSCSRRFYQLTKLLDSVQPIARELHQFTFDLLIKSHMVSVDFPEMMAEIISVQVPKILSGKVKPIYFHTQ

LNCaP [2] = test: Antitumour activity against human LNCaP cells xenografted in po dosed BALB/c nude mouse assessed as reduction in tumour volume administered daily for 21 days; format: functional, organism-based; details: dose 15-45 mg/kg, time 21.0 day
LNCaP [3] = test: Antitumour activity against human LNCaP cells xenografted in po dosed BALB/c nude mouse assessed as reduction in tumour size administered daily for 21 days; format: functional, organism-based; details: dose 15-45 mg/kg, time 21.0 day
LNCaP [4] = test: Antitumour activity against human LNCaP cells xenografted in po dosed BALB/c nude mouse assessed as reduction in tumour weight administered daily for 21 days; format: functional, organism-based; details: dose 15-45 mg/kg, time 21.0 day
[5] = Toxicity in BALB/c mouse xenografted with LNCaP cells assessed as reduction in body weight at 15 to 45 mg/kg, po administered daily for 21 days; format: organism-based; details: in vivo, 504 h, dose 15-45 mg/kg, time 21 day
LNCaP [6] = test: Antitumour activity against human LNCaP cells xenografted in BALB/c nude mouse assessed as reduction in tumour weight at 15 mg/kg, po administered daily for 21 days relative to control; format: functional; details: 504 h, time 21 day, read-out: TGI
LNCaP [7] = test: Antitumour activity against human LNCaP cells xenografted in BALB/c nude mouse assessed as reduction in tumour weight at 30 mg/kg, po administered daily for 21 days relative to control; format: functional; details: 504 h, time 21 day, read-out: TGI
LNCaP [8] = test: Antitumour activity against human LNCaP cells xenografted in BALB/c nude mouse assessed as reduction in tumour weight at 45 mg/kg, po administered daily for 21 days relative to control; format: functional; details: time 21 day
[9] = Toxicity in BALB/c mouse xenografted with human LNCaP cells assessed as pathological changes in heart at 15 to 45 mg/kg, po administered daily for 21 days H and E staining based optical microscopic method; format: organism-based; details: in vivo, 504 h, dose 15-45 mg/kg, time 21 day
LNCaP [10] = test: Antitumour activity against human LNCaP cells xenografted in BALB/c nude mouse assessed as decrease in PSA level at 45 mg/kg, po administered daily for 21 days by ELISA relative to control; format: functional; set-up: scale not given: the % may be the effect or the level left; details: time 21 day
LNCaP [11] = test: Antitumour activity against human LNCaP cells xenografted in BALB/c nude mouse assessed as decrease in PSA level at 30 mg/kg, po administered daily for 21 days by ELISA relative to control; format: functional; set-up: scale not given: the % may be the effect or the level left; details: time 21 day
LNCaP [12] = test: Antitumour activity against human LNCaP cells xenografted in BALB/c nude mouse assessed as decrease in PSA level at 15 mg/kg, po administered daily for 21 days by ELISA relative to control; format: functional; set-up: scale not given: the % may be the effect or the level left; details: time 21 day
LNCaP [13] = test: Antitumour activity against human LNCaP cells xenografted in po dosed BALB/c nude mouse assessed as decrease in PSA level administered daily for 21 days by ELISA; format: functional, organism-based; details: dose 15-45 mg/kg, time 21.0 day
LNCaP [14] = test: Antitumour activity against human LNCaP cells xenografted in BALB/c nude mouse assessed as increase in karyorrhexis at 15 to 45 mg/kg, po administered daily for 21 days by H and E staining based optical microscopic method; format: functional, organism-based; details: dose 15-45 mg/kg, time 21.0 day
LNCaP [15] = test: Antitumour activity against human LNCaP cells xenografted in BALB/c nude mouse assessed as increase in necrosis at 15 to 45 mg/kg, po administered daily for 21 days by H and E staining based optical microscopic method; format: functional, organism-based; details: dose 15-45 mg/kg, time 21.0 day
[16] = Toxicity in BALB/c mouse xenografted with human LNCaP cells assessed as pathological changes in kidney at 15 to 45 mg/kg, po administered daily for 21 days H and E staining based optical microscopic method; format: organism-based; details: in vivo, 504 h, dose 15-45 mg/kg, time 21 day
[17] = Toxicity in BALB/c mouse xenografted with human LNCaP cells assessed as pathological changes in liver at 15 to 45 mg/kg, po administered daily for 21 days H and E staining based optical microscopic method; format: organism-based; details: in vivo, 504 h, dose 15-45 mg/kg, time 21 day
[18] = Toxicity in BALB/c mouse xenografted with human LNCaP cells assessed as pathological changes in lung at 15 to 45 mg/kg, po administered daily for 21 days H and E staining based optical microscopic method; format: organism-based; details: in vivo, 504 h, dose 15-45 mg/kg, time 21 day
[19] = Toxicity in BALB/c mouse xenografted with human LNCaP cells assessed as pathological changes in spleen at 15 to 45 mg/kg, po administered daily for 21 days H and E staining based optical microscopic method; format: organism-based; details: in vivo, 504 h, dose 15-45 mg/kg, time 21 day
[20] = Toxicity in ICR mouse assessed as reduction in body weight at 100 to 1000 mg/kg, po administered for 14 days; format: organism-based; details: in vivo, 336 h, dose 100-1000 mg/kg, time 14 day
[21] = Toxicity in ICR mouse assessed as pathological changes in seminal vesicle at 100 to 1000 mg/kg, po administered for 14 days by H and E staining based optical microscopic method; format: organism-based; details: in vivo, 336 h, dose 100-1000 mg/kg, time 14 day
[22] = Toxicity in ICR mouse assessed as pathological changes in prostate […] at 100 to 1000 mg/kg, po administered for 14 days by H and E staining based optical microscopic method; format: organism-based; details: in vivo, 336 h, dose 100-1000 mg/kg, time 14 day
[23] = Half life in human liver microsomes at 10 uM; format: ADME, Microsome
[24] = Stability in human liver microsomes assessed as parent compound remaining at 10 uM; format: ADME, Microsome; details: read-out: Stabilty
in vitro = details: human, liver microsomes
Description: Intrinsic clearance in human liver microsomes at 10 uM

[25] = Antagonist activity at GABAA receptor (unknown origin) by radioligand binding assay

CCOC(=O)Nc1cc2c(cc1F)CC1C(=O)N(c3cnc(C#N)c(C(F)(F)F)c3)C(=S)N1C2 (centres undefined)
IC50 (LNCaP [1]): 14.8 µM
IC50 (DU-145): 94.3 µM
IC50 (Androgen receptor): 6.17 µM
Activity (LNCaP [2]): Dose-dependent effect
Activity (LNCaP [3]): Dose-dependent effect
Activity (LNCaP [4]): Dose-dependent effect
Activity [5]: Non-Toxic
inhibition in vivo at 15 mg/kg (LNCaP [6]): 12%
inhibition in vivo at 30 mg/kg (LNCaP [7]): 39%
inhibition in vivo at 45 mg/kg (LNCaP [8]; Mus musculus, LNCaP, po, 504 h, read-out: TGI): 79%
Activity [9]: Non-Toxic
Activity (LNCaP [10]): 73%
Activity (LNCaP [11]): 43%
Activity (LNCaP [12]): 24%
Activity (LNCaP [13]): Dose-dependent effect
Activity (LNCaP [14]): Active
Activity (LNCaP [15]): Active
Activity [16]: Non-Toxic
Activity [17]: Non-Toxic
Activity [18]: Non-Toxic
Activity [19]: Non-Toxic
Activity [20]: Non-Toxic
Activity [21]: Non-Toxic
Activity [22]: Non-Toxic
half-life at 10 µM [23]: 261 min
remaining at 10 µM [24]: 87.1%
CLint scaled at 10 µM (in vitro): 7.86 mL/min/kg

CNC(=O)c1ccc(N2C(=S)N(c3ccc(C#N)c(C(F)(F)F)c3)C(=O)C2(C)C)cc1F [ENZALUTAMIDE]
IC50 (LNCaP [1]): 16.5 µM
IC50 (DU-145): 49.3 µM
TGI (LNCaP [8]): 68%
Activity (LNCaP [10]): 57%
IC50 [25]: 2700 nM
half-life at 10 µM [23]: 401 min
remaining at 10 µM [24]: 90.3%
